Non-standard residues stand in square brackets, D forms with d. Nle = CCCC[C@H](N)C(=O)O
How the values were obtained:
Assay type in all cases: cell-based, human
melanocytes strain 105c = experiment: cAMP levels, radioimmunoassay; details: 45 min, 0.1 mM IBMX
Procedure: Dose-response experiments were carried out on three melanocytic strains, namely strains 1513c, 1505b and 105c melanocytes were treated with 1 pM-10 nM CUV9900 or NDP-MSH, or with 0.1-10 nM MSH for 45 minutes in the presence of 0.1 mM isobutyl methylxanthine (IBMX). The results obtained from strain 1513c are shown in Fig. 3, the results obtained from strain 1505b are shown in Fig. 5a and the results obtained from strain 105c are shown in Fig. 5b. The strains 1505b and 1513c were obtained from the same human adult while the strain 105c was obtained from another human adult.
Cyclic AMP is the second messenger for the melanocortin-1 receptor, and assessment is usually performed indicating cellular activity reflective of melanogenesis. Cyclic AMP levels were determined using ^125I-labeled radioimmunoassay kit (Perkin Elmer, Waltham, MA), in human melanocytes that were treated with 0 (control), 0.1-10.0 nM α-MSH, or 0.001-10 nM NDP-MSH or 0.001-10.0 nM CUV 9900 for 45 min. in the presence of 0.1 mM IBMX, a phosphodiesterase inhibitor to prevent cAMP degradation. Triplicate wells were included in each group, and duplicate samples from each well were assayed for cAMP levels. Each data point is the mean percent of control of 6 determinations/group ±S.E.

[1] = tested on: melanocytic strain 1505b and melanocytic strain 10.3c; experiment: UV-induced generation of hydrogen peroxide, luminol luminescence; details: 1 nM; for UV-induced hydrogen peroxide generation: 105 mJ/cm^2 UV, 0, 30 and 45 minutes after UV irradiation
Source text: (§1) With reference to Figs. 10 and 11, melanocytes were irradiated with a bank of FS 20 lamps, with 75% emission in the UVB, and 25% emission in the UVA spectra, with peak emission at 313 nm wavelength. Any emission of UVC rays from the UV source (FS 20 lamps) was blocked by Kodacel filter. Prior to irradiation, the culture medium was replaced by PBS, which was removed after UV exposure, and fresh medium added.
(§2) Melanocytes were irradiated with 105 mJ/cm^2 UV, and treated immediately while in PBS with 0, 1 nM α-MSH or 1 nM CUV9900. Generation of hydrogen peroxide, representative of reactive oxygen species (ROS), was determined by measuring the luminescence of luminol at 0, 30, and 45 min after UV exposure. Triplicate dishes were included in each group, and duplicate samples from each dish were used for measurement of hydrogen peroxide at each time point. Each data point represents the mean of 6 determinations/group ±S.E.

[2] = tested on: melanocytic strains 1563c and 102b; experiment: Ultrastructural visualization of DOPA-stained HM, electron microscopy; details: 0.1 nM or 1 nM CUV9900 or 1 nM MSH
Procedure: (§3) With reference to Figs. 14 and 15, two melanocytic strains, a lightly pigmented strain 1563c of Fig. 14 and strain 102b of Fig. 15 were plated in 4-well chamber slides and treated […] with either 0.1 nM or 1 nM CUV9900 or 1 nM MSH for a total of 6 days. Cells were processed for electron microscopy in the presence or absence of histochemical reaction with DOPA. Microtome sections were analyzed in a JEOL JEM-1230 transmission electron microscope and photomicrographs (15,000 X) of the perinuclear area and dendrites were taken for each experimental group.

melanocyte strain 1513c = experiment: Tyrosinase activity as a measure of stability / residual effect; details: strain 1513c; 1 nM peptide incubated 5-7 hours at 37 degrees Celsius
Procedure: To determine the residual effect of CUV9900, as compared to NDP-MSH and α-MSH, on tyrosinase activity, melanocytes were treated with either CUV9900 or NDP-MSH at the concentrations previously described for a total of 3 days. Tyrosinase activity was measured at the end of the 3 days of treatment, and 2 and 4 days after maintenance of the melanocytes in the complete absence of any treatment. With continued reference to Figs. 7, 8 and 9, to determine the stability of CUV9900 versus that of NDP-MSH and α-MSH, melanocytes were treated with 1 nM of each peptide, namely with CUV9900, NDP-MSH and α-MSH, for a total of 6 days, or with 1 nM peptides that were incubated for 5 hours at 37 °C prior to addition to the cultures, every other day, for a total of 6 days. Tyrosinase activity was measured at the end of treatment. In the experiments, cell number represents the mean percent of control of 3 determinations/ group ±SE, and tyrosinase activity data represent the mean percent of control of 6 determinations ±S.E. It should be noted that for the sake of reproducibility the experiment of strain 1513c of Fig. 9 was performed once more 6 months later than the experiment of Fig. 7. […] Melanocytes were treated for 3 days with the designated concentrations of CUV9900, NDP-MSH, or MSH, then maintained in absence of peptides for 4 days. Tyrosinase activity was determined 3 days after treatment. Comparison of stability of CUV9900, NDP-MSH and MSH was compared in 1513c, as shown in Fig. 7; the strain was treated for 6 days with 1 nM CUV9900, NDP-MSH or MSH with fresh medium and peptide replenished every 2 days. Melanocytes were treated according to the same experiment protocol but each peptide was incubated for 5-7 hours at 37 degrees Celsius. […] The assessment of tyrosinase was statistically different from control, as determined by ANOVA (p=<0.05).

melanocytic strain 10.3c = experiment: UV-induced generation of hydrogen peroxide (luminol luminescence); details: 1 nM, 105 mJ/cm^2 UV, 0, 30 and 45 minutes after UV
Source text: as §1, §2

melanocytic strain 1505b = experiment: as above; details: strain 1505b; 1 nM; 105 mJ/cm^2 UV; 0, 30 and 45 minutes after UV
Source text: as §1, §2

[3] = tested on: lightly pigmented strain 1563c and strain 102b; experiment: Ultrastructural visualization of DOPA-stained HM (electron microscopy); details: 0.1 nM or 1 nM CUV9900 or 1 nM MSH; strains 1563c and 102b
Procedure: as §3

Substance | elevation of cAMP in comparison to NDP (melanocytes strain 105c; 0.01 nM and 0.1 nM) | cAMP compared with MSH (melanocytes strain 105c; 0.1 nM, 1 nM and 10 nM) | UV-induced hydrogen peroxide generation [1] | hydrogen peroxide generation in comparison with both NDP-MSH and MSH ([1]; at 45 minutes after irradiation) | melanosomes in the perinuclear area and dendrites [2] | effect of incubation of the peptide on stimulation of tyrosinase activity (melanocyte strain 1513c) | UV-induced hydrogen peroxide generation (melanocytic strain 10.3c) | UV-induced hydrogen peroxide generation (melanocytic strain 1505b) | melanosomes, electron microscopy [3]
Ac-Nle-Glu His-D-Phe-Arg-Trp-NH2 (SEQ ID NO: 1) (Ac-[Nle]EH[dF]RW-NH2; SMILES CCCC[C@H](NC(C)=O)C(=O)N[C@@H](CCC(=O)O)C(=O)N[C@@H](Cc1c[nH]cn1)C(=O)N[C@H](Cc1ccccc1)C(=O)N[C@@H](CCCNC(=N)N)C(=O)N[C@@H](Cc1c[nH]c2ccccc12)C(N)=O) [CUV9900] | less elevation of cAMP | significantly higher | significant reduction | lower hydrogen peroxide generation | increased mature (stage IV) melanosomes | – | – | – | –
Ac-Ser-Tyr-Ser-Met-Glu-His-Phe-Arg-Trp-Gly-Lys-Pro-Val-NH2 (SEQ ID NO: 3) [alpha-MSH, reference compound] | – | – | significant reduction | – | increased mature (stage IV) melanosomes | – | – | – | –
Ac-Ser-Tyr-Ser-Met-Glu-His-Phe-Arg-Trp-Gly-Lys-Pro-Val-NH2 [alpha-MSH, reference compound] | – | – | – | – | – | totally abolished its effect on tyrosinase activity | significant reduction of UV-induced hydrogen peroxide generation | significant reduction of UV-induced hydrogen peroxide generation | increased mature (stage IV) melanosomes in the perinuclear area and more so in dendrites
